From ChEMBL document CHEMBL3885881, “DrugMatrix”

Organism: Rattus norvegicus
Assay: DrugMatrix - Regimen: Daily Repeat
Type: toxicity, organism-based, Sprague-Dawley
Set-up: regimen Daily Repeat, gender Male, age 6-8 weeks
Details: in vivo, po, route oral GAVAGE, vehicle 100 % WATER; for ABSOLUTE BASOPHIL / ABSOLUTE EOSINOPHIL / ABSOLUTE LYMPHOCYTE / ABSOLUTE MONOCYTE / ABSOLUTE SEGMENTED NEUTROPHIL / BASOPHIL / EOSINOPHIL / ERYTHROCYTE COUNT / HEMATOCRIT / HEMOGLOBIN / LEUKOCYTE COUNT / LYMPHOCYTE / MEAN CORPUSCULAR HEMOGLOBIN / MEAN CORPUSCULAR HEMOGLOBIN CONCENTRATION / MEAN CORPUSCULAR VOLUME / MONOCYTE / NEUTROPHIL / NUCLEATED RED BLOOD CELLS / PLATELET COUNT: tissue Blood; for ALANINE AMINOTRANSFERASE / ALBUMIN / ALKALINE PHOSPHATASE / ASPARTATE AMINOTRANSFERASE / BLOOD UREA NITROGEN / CARBON DIOXIDE / CHLORIDE / CHOLESTEROL / CREATINE PHOSPHOKINASE / CREATININE / GLUCOSE / LACTATE DEHYDROGENASE / LIPASE / PHOSPHORUS / POTASSIUM / SODIUM / TOTAL BILIRUBIN / TOTAL PROTEIN / URIC ACID: tissue Plasma
[1] = 3 mg/kg, 120 h, dose level Low, time 5 day
[2] = 47 mg/kg, 72 h, dose level High, time 3 day
[3] = 47 mg/kg, 120 h, dose level High, time 5 day

## CN(C)CC[C@@H](c1ccc(Cl)cc1)c1ccccn1 [DEXCHLORPHENIRAMINE]
[1]
  ABSOLUTE BASOPHIL: 0 CELLS/uL
  ABSOLUTE EOSINOPHIL: 0 CELLS/uL
  ABSOLUTE LYMPHOCYTE: 15600.33 CELLS/uL
  ABSOLUTE MONOCYTE: 181.67 CELLS/uL
  ABSOLUTE SEGMENTED NEUTROPHIL: 884.67 CELLS/uL
  BASOPHIL: 0%
  EOSINOPHIL: 0%
  ERYTHROCYTE COUNT: 5.61 x10E6/uL
  HEMATOCRIT: 35.43%
  HEMOGLOBIN: 14.3 G/DL
  LEUKOCYTE COUNT: 16.67 x10E3/uL
  LYMPHOCYTE: 93.67%
  MEAN CORPUSCULAR HEMOGLOBIN: 25.5 pg
  MEAN CORPUSCULAR HEMOGLOBIN CONCENTRATION: 40.33 G/DL
  MEAN CORPUSCULAR VOLUME: 63.17 fL
  MONOCYTE: 1%
  NEUTROPHIL: 5.33%
  NUCLEATED RED BLOOD CELLS: 0.33 /100WBC
  PLATELET COUNT: 1254.33 x10E3/uL
  ALANINE AMINOTRANSFERASE: 55.33 u/L
  ALBUMIN: 4.17 G/DL
  ALKALINE PHOSPHATASE: 407 u/L
  ASPARTATE AMINOTRANSFERASE: 86.33 u/L
  BLOOD UREA NITROGEN: 15 mg/dL
  CARBON DIOXIDE: 32 mmol/L
  CHLORIDE: 102 MEQ/L
  CHOLESTEROL: 63.33 mg/dL
  CREATINE PHOSPHOKINASE: 451.67 u/L
  CREATININE: 0.18 mg/dL
  GLUCOSE: 121.33 mg/dL
  LACTATE DEHYDROGENASE: 251 u/L
  LIPASE: 10.33 u/L
  PHOSPHORUS: 12.1 mg/dL
  POTASSIUM: 6.1 MEQ/L
  SODIUM: 144.9 MEQ/L
  TOTAL BILIRUBIN: 0.23 mg/dL
  TOTAL PROTEIN: 6.07 G/DL
  URIC ACID: 1.37 mg/dL
[2]
  ABSOLUTE BASOPHIL: 0 CELLS/uL
  ABSOLUTE EOSINOPHIL: 62.67 CELLS/uL
  ABSOLUTE LYMPHOCYTE: 12240 CELLS/uL
  ABSOLUTE MONOCYTE: 133 CELLS/uL
  ABSOLUTE SEGMENTED NEUTROPHIL: 864.33 CELLS/uL
  BASOPHIL: 0%
  EOSINOPHIL: 0.67%
  ERYTHROCYTE COUNT: 5.93 x10E6/uL
  HEMATOCRIT: 38.13%
  HEMOGLOBIN: 14.77 G/DL
  LEUKOCYTE COUNT: 13.3 x10E3/uL
  LYMPHOCYTE: 91.33%
  MEAN CORPUSCULAR HEMOGLOBIN: 24.9 pg
  MEAN CORPUSCULAR HEMOGLOBIN CONCENTRATION: 38.73 G/DL
  MEAN CORPUSCULAR VOLUME: 64.3 fL
  MONOCYTE: 1%
  NEUTROPHIL: 7%
  NUCLEATED RED BLOOD CELLS: 0 /100WBC
  PLATELET COUNT: 1535.33 x10E3/uL
  ALANINE AMINOTRANSFERASE: 44.33 u/L
  ALBUMIN: 4.03 G/DL
  ALKALINE PHOSPHATASE: 352 u/L
  ASPARTATE AMINOTRANSFERASE: 75 u/L
  BLOOD UREA NITROGEN: 14.67 mg/dL
  CARBON DIOXIDE: 33.67 mmol/L
  CHLORIDE: 102 MEQ/L
  CHOLESTEROL: 65 mg/dL
  CREATINE PHOSPHOKINASE: 246.67 u/L
  CREATININE: 0.17 mg/dL
  GLUCOSE: 153.67 mg/dL
  LACTATE DEHYDROGENASE: 134 u/L
  LIPASE: 10.67 u/L
  PHOSPHORUS: 12.47 mg/dL
  POTASSIUM: 6.39 MEQ/L
  SODIUM: 145.23 MEQ/L
  TOTAL BILIRUBIN: 0.17 mg/dL
  TOTAL PROTEIN: 5.97 G/DL
  URIC ACID: 1.93 mg/dL
[3]
  ABSOLUTE BASOPHIL: 0 CELLS/uL
  ABSOLUTE EOSINOPHIL: 0 CELLS/uL
  ABSOLUTE LYMPHOCYTE: 14891.67 CELLS/uL
  ABSOLUTE MONOCYTE: 0 CELLS/uL
  ABSOLUTE SEGMENTED NEUTROPHIL: 875 CELLS/uL
  BASOPHIL: 0%
  EOSINOPHIL: 0%
  ERYTHROCYTE COUNT: 6.11 x10E6/uL
  HEMATOCRIT: 38.9%
  HEMOGLOBIN: 14.93 G/DL
  LEUKOCYTE COUNT: 15.77 x10E3/uL
  LYMPHOCYTE: 94.33%
  MEAN CORPUSCULAR HEMOGLOBIN: 24.47 pg
  MEAN CORPUSCULAR HEMOGLOBIN CONCENTRATION: 38.37 G/DL
  MEAN CORPUSCULAR VOLUME: 63.73 fL
  MONOCYTE: 0%
  NEUTROPHIL: 5.67%
  NUCLEATED RED BLOOD CELLS: 0 /100WBC
  PLATELET COUNT: 1215 x10E3/uL
  ALANINE AMINOTRANSFERASE: 35.67 u/L
  ALBUMIN: 4.17 G/DL
  ALKALINE PHOSPHATASE: 323 u/L
  ASPARTATE AMINOTRANSFERASE: 76.67 u/L
  BLOOD UREA NITROGEN: 14.67 mg/dL
  CARBON DIOXIDE: 30.67 mmol/L
  CHLORIDE: 101.33 MEQ/L
  CHOLESTEROL: 61.67 mg/dL
  CREATINE PHOSPHOKINASE: 322 u/L
  CREATININE: 0.13 mg/dL
  GLUCOSE: 169.67 mg/dL
  LACTATE DEHYDROGENASE: 202.67 u/L
  LIPASE: 11 u/L
  PHOSPHORUS: 12.57 mg/dL
  POTASSIUM: 5.79 MEQ/L
  SODIUM: 144.7 MEQ/L
  TOTAL BILIRUBIN: 0.2 mg/dL
  TOTAL PROTEIN: 6.33 G/DL
  URIC ACID: 1.57 mg/dL
